Assay results from patent publication US7700637B2, “Organic compounds” (Novartis AG, priority 2003, dated 2010).

Which melting point does the source give for `Cc1oc(-c2ccc(F)cc2)nc1COc1ccc(S(=O)(=O)Nc2cc(Cl)ccc2C(=O)O)cc1` [Compd 4-5, 4-Chloro-2-{4-[2-(4-fluoro-phenyl)-5-methyl-oxazol-4-ylmethoxy]-benzenesulfonylamino}-benzoic acid] here?
Its melting point is 223 to 225 °C.

Which melting point does the source give for `Cc1oc(-c2ccccc2)nc1COc1ccc(S(=O)(=O)Nc2cc(Cl)ccc2C(=O)O)cc1` [Compd 4-7, 4-Chloro-2-[4-(5-methyl-2-phenyl-oxazol-4-ylmethoxy)-benzenesulfonylamino]-benzoic acid] here?
The melting point was 98 to 100 °C.

Which melting point does the source give for `CCCOc1cc(C)c(C(=O)O)c(OCc2ccc(OCc3nc(-c4ccccc4)oc3C)cc2)c1` [Compd 21-3, 2-Methyl-6-[4-(5-methyl-2-phenyl-oxazol-4-ylmethoxy)-benzyloxy]-4-propoxy-benzoic acid] here?
The melting point was 182 to 183 °C.

Which melting point does the source give for `Cc1oc(-c2ccc(C(F)(F)F)cc2)nc1COc1ccc(S(=O)(=O)Nc2cc(Cl)ccc2C(=O)O)cc1` [Compd 4-3, 4-Chloro-2-{4-[5-methyl-2-(4-trifluoromethyl-phenyl)-oxazol-4-ylmethoxy]-benzene-sulfonylamino}benzoic acid] here?
Its melting point is 191 to 193 °C.

With `Cc1cc(OC(C)C)cc(OCc2ccc(OCCc3nc(-c4ccccc4)oc3C)cc2)c1C(=O)O` [Compd 21-7, 4-Isopropoxy-2-methyl-6-{4-[2-(5-methyl-2-phenyl-oxazol-4-yl)-ethoxy]-benzyloxy}-benzoic acid] as the molecule, how does the melting point read?
Its melting point is 157 to 158 °C.

For `COc1ccc(NS(=O)(=O)c2ccc(OCc3nc(-c4ccccc4)oc3C)cc2)c(C(=O)O)c1` [Compd 4-16, 5-Methoxy-2-[4-(5-methyl-2-phenyl-oxazol-4-ylmethoxy)-benzenesulfonylamino]-benzoic acid], which melting point is on record?
Its melting point is 190 to 194 °C.

With `COc1cccc(OCc2ccc(OCc3nc(-c4ccccc4)oc3C)cc2)c1C(=O)O` [Compd 21-9, 2-Methoxy-6-[4-(5-methyl-2-phenyl-oxazol-4-ylmethoxy)-benzyloxy]-benzoic acid] as the molecule, how does the melting point read?
The melting point was 180 to 181 °C.

For `Cc1oc(-c2ccccc2)nc1CCOc1ccc(COc2cccc(F)c2C(=O)O)cc1` [Compd 21-8, 2-Fluoro-6-{4-[2-(5-methyl-2-phenyl-oxazol-4-yl)-ethoxy]-benzyloxy}-benzoic acid], which melting point is on record?
Its melting point is 142 to 143 °C.

With `Cc1oc(-c2ccccc2)nc1COc1ccc(S(=O)(=O)Nc2cccc(F)c2C(=O)O)cc1` [Compd 4-4, 6-Fluoro-2-[4-(5-methyl-2-phenyl-oxazol-4-ylmethoxy)-benzenesulfonylamino]-benzoic acid] as the molecule, how does the melting point read?
Its melting point is 203 to 205 °C.

With `O=C(NCCc1ccc(F)cc1)c1ccc(S(=O)(=O)Nc2ccccc2C(=O)O)cc1` [Example 7, 2-{4-[2-(4-Fluoro-phenyl)-ethylcarbamoyl]-benzenesulfonylamino}-benzoic acid] as the molecule, how does the melting point read?
The melting point was 85 to 86 °C.

With `Cc1oc(-c2ccccc2)nc1CCOc1ccc(S(=O)(=O)Nc2ccccc2C(=O)O)cc1` [Compd 4-21, 2-{4-[2-(5-Methyl-2-phenyl-oxazol-4-yl)-ethoxy]-benzenesulfonylamino}-benzoic acid] as the molecule, how does the melting point read?
Its melting point is 136 to 138 °C.

For `Cc1oc(-c2ccccc2)nc1COc1ccc(COc2cc(Cl)ccc2C(=O)O)cc1` [Compd 21-11, 4-Chloro-2-[4-(5-methyl-2-phenyl-oxazol-4-ylmethoxy)-benzyloxy]-benzoic acid], which melting point is on record?
Its melting point is 155 to 156 °C.

Which melting point does the source give for `CCOc1ccc(CC(=O)Nc2ccc(S(=O)(=O)Nc3ccccc3C(=O)O)cc2)cc1` [Example 9, 2-{4-[2-(4-Ethoxy-phenyl)-acetylamino]-benzenesulfonylamino}-benzoic acid] here?
The melting point was 241 to 242 °C.

Which melting point does the source give for `Cc1oc(-c2ccccc2)nc1COc1ccc(S(=O)(=O)Nc2ccc(F)cc2C(=O)O)cc1` [Compd 4-14, 5-Fluoro-2-[4-(5-methyl-2-phenyl-oxazol-4-ylmethoxy)-benzenesulfonylamino]-benzoic acid] here?
The melting point was 213 to 215 °C.

With `Cc1oc(-c2ccccc2)nc1CCOc1ccc(COc2cc3ccccc3cc2C(=O)O)cc1` [Example 14, 3-{4-[2-(5-Methyl-2-phenyl-oxazol-4-yl)-ethoxy]-benzyloxy}-naphthalene-2-carboxylic acid] as the molecule, how does the melting point read?
Its melting point is 135 to 137 °C.

With `Cc1cc(C)c(NS(=O)(=O)c2ccc(OCc3nc(-c4ccccc4)oc3C)cc2)c(C(=O)O)c1` [Compd 4-25, 3,5-Dimethyl-2-[4-(5-methyl-2-phenyl-oxazol-4-ylmethoxy)-benzenesulfonylamino]-benzoic acid] as the molecule, how does the melting point read?
The melting point was 165 to 166 °C.

With `O=C(NCc1ccc(C(F)(F)F)cc1)c1ccc(S(=O)(=O)Nc2ccccc2C(=O)O)cc1` [Compd 6-1, 2-[4-(4-Trifluoromethyl-benzylcarbamoyl)-benzenesulfonylamino]-benzoic acid] as the molecule, how does the melting point read?
The melting point was 330 to 335 °C.

For `Cc1oc(-c2ccccc2)nc1COCc1ccc(COc2cc(Cl)ccc2C(=O)O)cc1` [Compd 21-19, 4-Chloro-2-[4-(5-methyl-2-phenyl-oxazol-4-ylmethoxymethyl)-benzyloxy]-benzoic acid], which melting point is on record?
The melting point was 151 °C.

For `Cc1oc(-c2ccccc2)nc1COc1ccc(S(=O)(=O)Nc2cc(-c3ccccc3)ccc2C(=O)O)cc1` [Compd 4-2, 3-[4-(5-Methyl-2-phenyl-oxazol-4-ylmethoxy)-benzenesulfonylamino]-biphenyl-4-carboxylic acid], which melting point is on record?
The melting point was 75 to 77 °C.

For `Cc1oc(-c2ccccc2)nc1CCOc1ccc(COc2cc(Cl)ccc2C(=O)O)cc1` [Compd 21-12, 4-Chloro-2-{4-[2-(5-methyl-2-phenyl-oxazol-4-yl)-ethoxy]-benzyloxy}benzoic acid], which melting point is on record?
The melting point was 148 to 149 °C.

Which melting point does the source give for `COc1ccc(NS(=O)(=O)c2ccc(OCCc3nc(-c4ccccc4)oc3C)cc2)c(C(=O)O)c1OC` [Compd 4-20, 2,3-Dimethoxy-6-{4-[2-(5-methyl-2-phenyl-oxazol-4-yl)-ethoxy]-benzenesulfonyl-amino}benzoic acid] here?
The melting point was 59 to 60 °C.

With `Cc1oc(-c2ccc(C(F)(F)F)cc2)nc1COc1ccc(S(=O)(=O)Nc2ccccc2C(=O)O)cc1` [Compd 4-8, 2-{4-[5-Methyl-2-(4-trifluoromethyl-phenyl)-oxazol-4-ylmethoxy]-benzenesulfonylamino}-benzoic acid] as the molecule, how does the melting point read?
Its melting point is 195 °C.

Which melting point does the source give for `Cc1oc(-c2ccccc2)nc1COc1ccc(S(=O)(=O)Nc2cccc(Cl)c2C(=O)O)cc1` [Compd 4-1, 6-Chloro-2-[4-(5-methyl-2-phenyl-oxazol-4-ylmethoxy)-benzenesulfonylamino]-benzoic acid] here?
The melting point was 170 to 172 °C.

Which melting point does the source give for `COc1cc(OC)c(C(=O)O)c(OCc2ccc(OCc3nc(-c4ccccc4)oc3C)cc2)c1` [Compd 21-2, 2,4-Dimethoxy-6-[4-(5-methyl-2-phenyl-oxazol-4-ylmethoxy)-benzyloxy]-benzoic acid] here?
Its melting point is 182 to 183 °C.

For `Cc1oc(-c2ccccc2)nc1CCOc1ccc(S(=O)(=O)Nc2cc(Cl)ccc2C(=O)O)cc1` [Example 2, 4-Chloro-2-{4-[2-(5-methyl-2-phenyl-oxazol-4-yl)-ethoxy]-benzenesulfonylamino}-benzoic acid], which melting point is on record?
Its melting point is 223 to 225 °C.

With `COc1ccc(C(=O)O)c(OCc2ccc(OCCc3nc(-c4ccccc4)oc3C)cc2)c1` [Example 11, 4-Methoxy-2-{4-[2-(5-methyl-2-phenyl-oxazol-4-yl)-ethoxy]-benzyloxy}-benzoic acid] as the molecule, how does the melting point read?
Its melting point is 113 to 115 °C.
